Experiments:
[1] = test system: pathological blood vessels (abnormal angiogenesis) induced with CoCl2; test: zebrafish embryo model, CoCl2-induced abnormal angiogenesis; format: in vivo, zebrafish (Danio rerio); conditions: for inhibition of growth of pathological eye blood vessels / inhibition of growth of ventral vessels / effect on the development of pathological blood vessels: CoCl2 5 mM; for inhibitory effect compared with other agents: qualitative comparison in the angiogenesis model; for effect on the development of pathological blood vessels: lower concentrations (below 2.5 μmol: 50 nmol, 100 nmol, 500 nmol, 1 μmol)
Procedure: (§1) In studies on the effect of various substances on VEGF release and action, among others, a laboratory model using zebrafish (Danio rerio) is employed. The study tested 3 substances with potential inhibitory activity towards VEGF release and action which belong to the group of dopaminergic receptor D2 agonists—bromocriptine, cabergoline and pergolide. The study was conducted on the model using transgenic zebrafish embryos (Zebrafish Fli strain) with labelled blood system, illuminating under the fluorescent microscope. Photographic documentation was collected using Stereo Discover v8 fluorescent microscope, fluorescence 200c hxp, from Carl Zeiss Microscopy GmbH. During the study, the development of normal blood vessels and pathological blood vessels (abnormal angiogenesis) was observed. Abnormal angiogenesis was induced with the use of cobalt chloride (CoCl2) in a dose of 5 mM which was administered to the culture medium. The study tested the inhibitory effect of bromocriptine, cabergoline and pergolide on the development of normal blood vessels, as well as the inhibition of abnormal angiogenesis in 5 increasing concentrations of these substances: 50 nmol, 100 nmol, 500 nmol, 1 μmol, 2.5 μmol, dissolved in dimethyl sulfoxide (DMSO) and administered to the culture medium. Any changes in the development of natural (FIG. 1) and pathological blood vessels (FIG. 2) were recorded 72 an 96 hours after the administration of a tested substance and a tested substance with CoCl2, respectively. The level of inhibition of normal and pathological blood vessels development in tested embryos was compared to the activity of bevacizumab (Avastin) at the concentration of 2.5 μg/ml, which is an anti-VEGF recombinant humanised monoclonal antibody (FIGS. 3). 72 and 96 after CoCl2 administration, the increase in the number of pathological eye blood vessels and the abnormal morphology thereof in the eyes (FIG. 2) as well as of ventral vessels (FIGS. 4 and 5) was observed.

[2] = test system: development of normal blood vessels; test: zebrafish embryo model, development of normal blood vessels; format: in vivo, zebrafish (Danio rerio); conditions: for effect on the development of normal blood vessels: lower concentrations (below 2.5 μmol: 50 nmol, 100 nmol, 500 nmol, 1 μmol)
Procedure: as §1, with “3).” for “3). 72 and 96 after CoCl2 administration, the increase in the number of pathological eye blood vessels and the abnormal morphology thereof in the eyes (FIG. 2) as well as of ventral vessels (FIGS. 4 and 5) was observed.”

[3] = 2.5 μmol in culture medium, recorded 72 and 96 hours
[4] = 2.5 μmol in culture medium, transgenic Zebrafish Fli embryos, recorded 72 and 96 hours

Molecule	inhibition of growth of pathological eye blood vessels ([1]; 1.0 μmol in culture medium)	inhibition of growth of ventral vessels ([1]; 1.0 μmol in culture medium)	inhibition of growth of pathological eye blood vessels [1, 3]	inhibition of growth of ventral vessels [1, 3]	inhibitory effect on the development of normal and pathological blood vessels (overall conclusion) ([1]; conclusion from all concentrations tested)	inhibitory effect compared with other agents [1]	inhibition of growth of normal eye blood vessels ([2]; 1.0 μmol in culture medium)	inhibition of normal ventral vessels growth ([2]; 1 μmol, 72 hours, FIG. 9)	inhibition of growth of normal eye blood vessels [2, 4]	inhibition of CoCl2-induced abnormal vascular growth (eye) ([1]; 2.5 μmol, 96 hours, FIG. 3)	effect on the development of pathological blood vessels [1]	effect on the development of normal blood vessels [2]	inhibition of abnormal ventral vessels growth ([1]; 2.5 μmol, 72 hours, FIG. 8)	effect on the development of ventral vessels ([1]; lower concentrations (below 2.5 μmol))
CCCN1C[C@H](CSC)C[C@@H]2c3cccc4[nH]cc(c34)C[C@H]21 [pergolide]	full inhibition	full inhibition	full inhibition	full inhibition	potent inhibitory effect	more potent than for known agents	partial inhibition	Partial inhibition	full inhibition					
bevacizumab										Inhibition				
CC(C)C[C@H]1C(=O)N2CCC[C@H]2[C@]2(O)O[C@](NC(=O)[C@@H]3C=C4c5cccc6[nH]c(Br)c(c56)C[C@H]4N(C)C3)(C(C)C)C(=O)N12 [bromocriptine]											no inhibitory effect	no inhibitory effect		
C=CCN1C[C@H](C(=O)N(CCCN(C)C)C(=O)NCC)C[C@@H]2c3cccc4[nH]cc(c34)C[C@H]21 [cabergoline]			full inhibition	full inhibition		more potent compared to bromocriptine			partial inhibition		no significant effect	no significant effect	Full inhibition	no significant effect

Source: patent publication US20200289480A1, “PERGOLIDE FOR USE IN THE TREATMENT OF EYE DISEASES ASSOCIATED WITH AN ELEVATED LEVEL OF VASCULAR ENDOTHELIAL GROWTH FACTOR (VEGF) AND PHARMACEUTICAL COMPOSITION CONTAINING PERGOLIDE” (priority 2017, published 2020)
